Literature values as cited in patent US6464987B1, “Pharmaceutical compositions capable of being gelled” (UCB, S.A., priority 1998, dated 2002).
Like-named read-outs stand apart in the source and are kept apart here.

How the values were obtained:
[1] = test system: humans; details: PLA-GA implants or PLA-GA microparticles
[2] = mouse, in vivo

CC(C)C[C@H](NC(=O)[C@@H](COC(C)(C)C)NC(=O)[C@H](Cc1ccc(O)cc1)NC(=O)[C@H](CO)NC(=O)[C@H](Cc1c[nH]c2ccccc12)NC(=O)[C@H](Cc1cnc[nH]1)NC(=O)[C@@H]1CCC(=O)N1)C(=O)N[C@@H](CCCNC(=N)N)C(=O)N1CCC[C@H]1C(=O)NNC(N)=O [gosereline]
level of testosterone in the blood [1]: very significant and lasting decrease

NC(=O)[C@@H]1CCCN1C(=O)[C@H](Cc1cnc[nH]1)NC(=O)[C@@H]1CCC(=O)N1 [TRH, thyrotropin releasing hormone]
bioavailability ([2]; im): 31.4%
bioavailability ([2]; sc): 67.5%
